# Experiments:
# Test in all cases: Test D pre-/postemergence plant response
# Type in all cases: in vivo
# [1] = test system: pigweed (Amaranthus retroflexus); settings: Amaranthus retroflexus, pre-emergence, Preemergence, scale 0 to 100 (0 no effect, 100 complete control), read-out: Plant response rating, Pigweed
# Description: (§1) Seeds of plant species selected from blackgrass (Alopecurus myosuroides), Italian ryegrass (Lolium multiflorum), winter wheat (Triticum aestivum), galium (catchweed bedstraw, Galium aparine), corn (Zea mays), large (Lg) crabgrass (Digitaria sanguinalis), giant foxtail (Setaria faberii), johnsongrass (Sorghum halepense), lambsquarters (Chenopodium album), morningglory (Ipomoea coccinea), yellow nutsedge (Cyperus esculentus), pigweed (Amaranthus retroflexus), ragweed (common ragweed, Ambrosia elatior), soybean (Glycine max), bamyardgrass (Echinochloa crus-galli), oilseed rape (Brassica napus), waterhemp (common waterhemp, Amaranthus rudis), and velvetleaf (Abutilon theophrasti) were planted into a blend of loam soil and sand and treated preemergence with test chemicals formulated in a non-phytotoxic solvent mixture which included a surfactant. At the same time, plants selected from these crop and weed species and also kochia (Kochia scoparia), wild oat (Avena fatua), and chickweed (common chickweed, Stellaria media) were planted in pots containing Redi-Earth® planting medium (Scotts Company, 14111 Scottslawn Road, Marysville, Ohio 43041) comprising spaghnum peat moss, vermiculite, wetting agent and starter nutrients and treated with postemergence applications of test chemicals formulated in the same manner. Plants ranged in height from 2 to 18 cm (1- to 4-leaf stage) for postemergence treatments. Treated plants and controls were maintained in a greenhouse for 13 to 15 days, after which time all species were compared to controls and visually evaluated. Plant response ratings, summarized in Table D, are based on a scale of 0 to 100 where 0 is no effect and 100 is complete control. A dash (-) response means no test result.
# [2] = test system: lambsquarters (Chenopodium album); settings: Chenopodium album, pre-emergence, Preemergence, scale 0 to 100 (0 no effect, 100 complete control), read-out: Plant response rating, Lambsquarters
# Description: as §1
# [3] = test system: oilseed rape (Brassica napus); settings: Brassica napus, pre-emergence, Preemergence, scale 0 to 100 (0 no effect, 100 complete control), read-out: Plant response rating, Oilseed Rape
# Description: as §1
# [4] = test system: soybean (Glycine max); settings: Glycine max, pre-emergence, Preemergence, scale 0 to 100 (0 no effect, 100 complete control), read-out: Plant response rating, Soybean
# Description: as §1
# [5] = test system: barnyardgrass (Echinochloa crus-galli); settings: Echinochloa crus-galli, pre-emergence, Preemergence
# Description: as §1
# [6] = test system: galium (catchweed bedstraw, Galium aparine); settings: Galium, pre-emergence, Preemergence, scale 0 to 100 (0 no effect, 100 complete control), read-out: Plant response rating, Galium
# Description: as §1
# [7] = test system: yellow nutsedge (Cyperus esculentus); settings: Cyperus, pre-emergence, Preemergence, scale 0 to 100 (0 no effect, 100 complete control), read-out: Plant response rating, Nutsedge, Yellow
# Description: as §1
# [8] = test system: blackgrass (Alopecurus myosuroides); settings: Alopecurus myosuroides, pre-emergence, Preemergence, scale 0 to 100 (0 no effect, 100 complete control), read-out: Plant response rating, Blackgrass
# Description: as §1
# [9] = test system: winter wheat (Triticum aestivum); settings: Triticum aestivum, pre-emergence, Preemergence, scale 0 to 100 (0 no effect, 100 complete control), read-out: Plant response rating, Wheat
# Description: as §1
# [10] = test system: Italian ryegrass (Lolium multiflorum); settings: Lolium multiflorum, pre-emergence, Preemergence, scale 0 to 100 (0 no effect, 100 complete control), read-out: Plant response rating, Ryegrass, Italian
# Description: as §1
# [11] = test system: ragweed (common ragweed, Ambrosia elatior); settings: Ambrosia artemisiifolia, pre-emergence, Preemergence, scale 0 to 100 (0 no effect, 100 complete control), read-out: Plant response rating, Ragweed
# Description: as §1
# [12] = test system: morningglory (Ipomoea coccinea); settings: Ipomoea, pre-emergence, Preemergence, scale 0 to 100 (0 no effect, 100 complete control), read-out: Plant response rating, Morningglory
# Description: as §1
# [13] = test system: johnsongrass (Sorghum halepense); settings: Sorghum halepense, pre-emergence, Preemergence, scale 0 to 100 (0 no effect, 100 complete control), read-out: Plant response rating, Johnsongrass
# Description: as §1
# [14] = test system: corn (Zea mays); settings: Zea mays, pre-emergence, Preemergence, scale 0 to 100 (0 no effect, 100 complete control)
# Description: as §1
# [15] = test system: large (Lg) crabgrass (Digitaria sanguinalis); settings: Digitaria sanguinalis, pre-emergence, Preemergence, scale 0 to 100 (0 no effect, 100 complete control), read-out: Plant response rating, Crabgrass, Large
# Description: as §1
# [16] = test system: velvetleaf (Abutilon theophrasti); settings: Abutilon theophrasti, pre-emergence, Preemergence, scale 0 to 100 (0 no effect, 100 complete control), read-out: Plant response rating, Velvetleaf
# Description: as §1
# [17] = test system: waterhemp (common waterhemp, Amaranthus rudis); settings: Amaranthus tuberculatus, pre-emergence, Preemergence, scale 0 to 100 (0 no effect, 100 complete control), read-out: Plant response rating, Waterhemp
# Description: as §1
# [18] = test system: giant foxtail (Setaria faberii); settings: Setaria faberi, pre-emergence, Preemergence, scale 0 to 100 (0 no effect, 100 complete control), read-out: Plant response rating, Foxtail, Giant
# Description: as §1
structure (smiles),measurement,setting,value
"FCc1cc(-c2ccccc2Oc2ncc(Cl)cn2)no1 [Compound 32, 5-chloro-2-[2-[5-(fluoromethyl)-3-isoxazolyl]phenoxy]pyrimidine]",pest or weed control at 8 g/ha,[1]; 8 g ai/ha,100%
same,pest or weed control at 16 g/ha,[1]; 16 g ai/ha,100%
same,pest or weed control at 31 g/ha,[1]; 31 g ai/ha,98%
same,pest or weed control at 62 g/ha,[1]; 62 g ai/ha,100%
same,pest or weed control at 8 g/ha,[2]; 8 g ai/ha,95%
same,pest or weed control at 16 g/ha,[2]; 16 g ai/ha,95%
same,pest or weed control at 31 g/ha,[2]; 31 g ai/ha,98%
same,pest or weed control at 62 g/ha,[2]; 62 g ai/ha,100%
same,plant injury at 8 g/ha,[3]; 8 g ai/ha,50%
same,plant injury at 16 g/ha,[3]; 16 g ai/ha,80%
same,plant injury at 31 g/ha,[3]; 31 g ai/ha,100%
same,plant injury at 62 g/ha,[3]; 62 g ai/ha,100%
same,plant injury at 8 g/ha,[4]; 8 g ai/ha,10%
same,plant injury at 16 g/ha,[4]; 16 g ai/ha,15%
same,plant injury at 31 g/ha,[4]; 31 g ai/ha,25%
same,plant injury at 62 g/ha,[4]; 62 g ai/ha,65%
same,pest or weed control at 62 g/ha,"[5]; 62 g ai/ha, read-out: Plant response rating (scale 0 to 100), Barnyardgrass",98%
same,pest or weed control at 8 g/ha,"[5]; 8 g ai/ha, scale 0 to 100 (0 no effect, 100 complete control), read-out: Plant response rating, Barnyardgrass",0%
same,pest or weed control at 16 g/ha,"[5]; 16 g ai/ha, scale 0 to 100 (0 no effect, 100 complete control), read-out: Plant response rating, Barnyardgrass",5%
same,pest or weed control at 31 g/ha,"[5]; 31 g ai/ha, scale 0 to 100 (0 no effect, 100 complete control), read-out: Plant response rating, Barnyardgrass",55%
same,pest or weed control at 8 g/ha,[6]; 8 g ai/ha,0%
same,pest or weed control at 16 g/ha,[6]; 16 g ai/ha,25%
same,pest or weed control at 31 g/ha,[6]; 31 g ai/ha,65%
same,pest or weed control at 62 g/ha,[6]; 62 g ai/ha,75%
same,pest or weed control at 8 g/ha,[7]; 8 g ai/ha,60%
same,pest or weed control at 16 g/ha,[7]; 16 g ai/ha,65%
same,pest or weed control at 31 g/ha,[7]; 31 g ai/ha,0%
same,pest or weed control at 62 g/ha,[7]; 62 g ai/ha,25%
same,pest or weed control at 8 g/ha,[8]; 8 g ai/ha,0%
same,pest or weed control at 16 g/ha,[8]; 16 g ai/ha,0%
same,pest or weed control at 31 g/ha,[8]; 31 g ai/ha,30%
same,pest or weed control at 62 g/ha,[8]; 62 g ai/ha,35%
same,plant injury at 8 g/ha,[9]; 8 g ai/ha,0%
same,plant injury at 16 g/ha,[9]; 16 g ai/ha,0%
same,plant injury at 31 g/ha,[9]; 31 g ai/ha,0%
same,plant injury at 62 g/ha,[9]; 62 g ai/ha,5%
same,pest or weed control at 8 g/ha,[10]; 8 g ai/ha,0%
same,pest or weed control at 16 g/ha,[10]; 16 g ai/ha,0%
same,pest or weed control at 31 g/ha,[10]; 31 g ai/ha,0%
same,pest or weed control at 62 g/ha,[10]; 62 g ai/ha,10%
same,pest or weed control at 8 g/ha,[11]; 8 g ai/ha,75%
same,pest or weed control at 16 g/ha,[11]; 16 g ai/ha,60%
same,pest or weed control at 31 g/ha,[11]; 31 g ai/ha,75%
same,pest or weed control at 62 g/ha,[11]; 62 g ai/ha,70%
same,pest or weed control at 8 g/ha,[12]; 8 g ai/ha,0%
same,pest or weed control at 16 g/ha,[12]; 16 g ai/ha,0%
same,pest or weed control at 31 g/ha,[12]; 31 g ai/ha,5%
same,pest or weed control at 62 g/ha,[12]; 62 g ai/ha,0%
same,pest or weed control at 8 g/ha,[13]; 8 g ai/ha,0%
same,pest or weed control at 16 g/ha,[13]; 16 g ai/ha,45%
same,pest or weed control at 31 g/ha,[13]; 31 g ai/ha,75%
same,pest or weed control at 62 g/ha,[13]; 62 g ai/ha,85%
same,"Corn plant response rating (crop injury, 0 = no effect, 100 = complete kill) at 8 g/ha",[14]; 8 g ai/ha,0%
same,"Corn plant response rating (crop injury, 0 = no effect, 100 = complete kill) at 16 g/ha",[14]; 16 g ai/ha,0%
same,"Corn plant response rating (crop injury, 0 = no effect, 100 = complete kill) at 31 g/ha",[14]; 31 g ai/ha,0%
same,"Corn plant response rating (crop injury, 0 = no effect, 100 = complete kill) at 62 g/ha",[14]; 62 g ai/ha,0%
same,pest or weed control at 8 g/ha,[15]; 8 g ai/ha,100%
same,pest or weed control at 16 g/ha,[15]; 16 g ai/ha,90%
same,pest or weed control at 31 g/ha,[15]; 31 g ai/ha,98%
same,pest or weed control at 62 g/ha,[15]; 62 g ai/ha,100%
same,pest or weed control at 8 g/ha,[16]; 8 g ai/ha,5%
same,pest or weed control at 16 g/ha,[16]; 16 g ai/ha,40%
same,pest or weed control at 31 g/ha,[16]; 31 g ai/ha,55%
same,pest or weed control at 62 g/ha,[16]; 62 g ai/ha,85%
same,pest or weed control at 8 g/ha,[17]; 8 g ai/ha,100%
same,pest or weed control at 16 g/ha,[17]; 16 g ai/ha,100%
same,pest or weed control at 31 g/ha,[17]; 31 g ai/ha,100%
same,pest or weed control at 62 g/ha,[17]; 62 g ai/ha,98%
same,pest or weed control at 8 g/ha,[18]; 8 g ai/ha,0%
same,pest or weed control at 16 g/ha,[18]; 16 g ai/ha,35%
same,pest or weed control at 31 g/ha,[18]; 31 g ai/ha,85%
same,pest or weed control at 62 g/ha,[18]; 62 g ai/ha,95%
